The source of these data is US10172864B2, “Therapeutically active compounds and their methods of use” (AGIOS PHARMACEUTICALS, INC, priority 2013, dated 2019).

This assay addresses IDH1 wt/IDH1 R132H heterodimer (Homo sapiens (Human), UniProt O75874, R132H). Description: IDH1 wt/IDH1 R132H heterodimer enzymatic assay, NADPH depletion with diaphorase/resazurin readout. In kind it is biochemical. Particulars: 300 μM NADP (saturated). As to the method:
The following describes the experimental procedures that can be used to obtain data on columns 2 and 4 of Table 4 and column 2 of Table 5.
In the primary reaction, the reduction of α-KG acid to 2-HG is accompanied by a concomitant oxidation of NADPH to NADP. The amount of NADPH remaining at the end of the reaction time is measured in a secondary diaphorase/resazurin reaction in which the NADPH is consumed in a 1:1 molar ratio with the conversion of resazurin to the highly fluorescent resorufin.
The mixture of compound, enzyme, and cofactor is pre-incubated at room temperature for 1 hr prior to the addition of alpha-ketoglutarate. To perform the secondary reaction, 10 uL of 1× buffer containing 36 μg/ml diaphorase and […] resazurin is added to the primary reaction and incubated for a further 5 minutes at 25° C. […] Compounds or compound dilutions are prepared in 100% DMSO concentration and diluted 1:50 into the final reaction. […] IC50s are determined.
IDH1 or IDH2 wildtype (wt) and mutant heterodimers are expressed and purified by methods known in the art. […] Host cell contaminants are removed by washing the column with equilibration buffer followed by equilibration buffer containing 20 mM imidazole and 60 mM imidazole to baseline. […]
On the technique in general: Resazurin is reduced to fluorescent resorufin, in cell work by metabolically active cells.

IDH1 wt/IDH1 R132H heterodimer, sequence (O75874 whole entry R132H): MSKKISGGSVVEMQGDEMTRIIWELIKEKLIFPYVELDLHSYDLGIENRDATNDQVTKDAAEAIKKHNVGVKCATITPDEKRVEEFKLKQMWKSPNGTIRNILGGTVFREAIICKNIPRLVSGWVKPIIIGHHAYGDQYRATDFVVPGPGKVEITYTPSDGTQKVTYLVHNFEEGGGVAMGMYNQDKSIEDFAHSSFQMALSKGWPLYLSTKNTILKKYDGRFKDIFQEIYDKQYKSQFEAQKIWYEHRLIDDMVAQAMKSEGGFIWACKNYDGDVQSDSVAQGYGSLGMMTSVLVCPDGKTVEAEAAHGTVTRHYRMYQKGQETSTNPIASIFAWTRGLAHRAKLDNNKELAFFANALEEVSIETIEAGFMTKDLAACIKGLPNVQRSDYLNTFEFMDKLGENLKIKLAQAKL
IDH1 wt/IDH1 R132H heterodimer, sequence (O75874 whole entry, stated change not applied): as the sequence (O75874 whole entry R132H) above, with H132R counted along it

What is called IC50 is the midpoint of a concentration-inhibition curve. On to `FC1(F)CCC(Nc2nc(NC3CCC(F)(F)CC3)nc(-c3nc(C(F)(F)F)cs3)n2)CC1` [Compound 357], for which the half-maximal inhibitory concentration (IC50) lay within 50 to 100 nM.
